Test results from patent publication US4847375A, “Antibacterial 1,8-bridged 4-quinoline-3-carboxylic acids” (Bayer Aktiengesellschaft, priority 1985, dated 1989).
Values after ≈ are worked out from the molar mass of the structure shown.

Legend:
Assay in all cases: MIC, agar dilution test
Type in all cases: cell-based
E. coli A 261 = details: Escherichia coli, A261, Isosensitest medium, Denley multipoint inoculator
From the text: (§1) Agar dilution test (Isosensitest medium); Denley multi-

E. coli Neumann = details: Escherichia coli, Isosensitest medium, Denley multipoint inoculator
From the text: as §1

E. coli T 7 = details: Escherichia coli, T7, Isosensitest medium, Denley multipoint inoculator
From the text: as §1

Klebsiella 8085 = details: Isosensitest medium, Denley multipoint inoculator
From the text: as §1

`CN1CCN(c2c(F)cc3c(=O)c(C(=O)O)cn4c3c2OC2CCCC24)CC1` (centres unmarked) [Example 3] showed an MIC (E. coli A 261) of 2 µg/mL (≈ 5.16 µM), an MIC (E. coli Neumann) of 2 µg/mL (≈ 5.16 µM) and an MIC (E. coli T 7) of 2 µg/mL (≈ 5.16 µM). It also gave an MIC (Klebsiella 8085) of 2 µg/mL (≈ 5.16 µM).

With `CC1(C)COc2c(N3CCNCC3)c(F)cc3c(=O)c(C(=O)O)cn1c23` [Example 7] the MIC (E. coli A 261) was 0.125 µg/mL (≈ 0.346 µM), the MIC (E. coli Neumann) was 1 µg/mL (≈ 2.77 µM) and the MIC (E. coli T 7) was 0.5 µg/mL (≈ 1.38 µM). For the same compound, the MIC (Klebsiella 8085) was 0.25 µg/mL (≈ 0.692 µM).
